Results reported in US9168243B2, “Pharmaceutical compositions comprising 8-substituted dibenzylbutyrolactone lignans” (priority 2010, dated 2015).
Entries after “also recorded” stand apart in the source; their conditions may differ.

What was measured:
Type in all cases: cell-based
EGF receptor (EGFR) = test: EGF-induced EGFR tyrosine 1068 phosphorylation, Western blot; settings: LNCaP; pretreatment with 100 μM NTG; 20 ng/ml EGF, 5 minutes
Method: (§1) The cells were treated with 0-100 μM lignans or solvent control for indicated times. Human recombinant isoleucin-zipper TRAIL (izTRAIL; kindly provided by Professor Henning Walczak) was used at 0-1 μg/ml with an incubation time of 20 hours. Prior to 10 minutes treatment with 10 nM IGF-1 (Millipore) or 10 nM insulin (Sigma) the cells were serum-starved (1% FCS) overnight. EGFR stimulation was performed on serum-starved cells with 20 ng/ml EGF for 5 minutes (a kind gift from Professor Klaus Elenius laboratory).
Whole cell lysates were prepared by lysing floating and attached cells in Laemmli sample buffer and boiling the samples for 10 minutes. Proteins were separated by SDS-PAGE and transferred on PVDF membrane (Millipore). Western blotting was performed using antibodies against Akt, phospho-Akt (Ser473), GSK-3β, phospho-GSK-3β (Ser9) and phospho-EGF receptor Tyr(1068) (Cell Signalling Technology), Actin (clone AC-40; Sigma-Aldrich), PI3K p85α (clone 4/PI3-Kinase; BD Pharmingen), EGF receptor, Insulin receptor β and IGF-I receptor β (Santa Cruz Biotechnology), and Phospho-tyrosine (clone 4G10; Millipore). HRP-conjugated secondary antibodies were from Southern Biotechnology Associates, Promega, and Amersham Biosciences. The results were visualized using the ECL method (Amersham Biosciences) on x-ray film. […]

[1] = tested on: insulin receptor (IR) β-subunit and IGF-I receptor (IGF-IR) β-subunit; test: Immunoprecipitation of IRβ and IGF-IRβ after insulin or IGF-I stimulation, Western blot for phospho-tyrosine and PI3K p85α; settings: serum-starved LNCaP; 40-100 μM NTG 2 hours before 10 nM insulin or IGF-I, 10 minutes
Method: as §1
The cells cultured on […] were placed on ice and rinsed with cold PBS. The cells were lysed in 1 ml of cold lysis buffer (50 mM Tris pH 7.4, 150 mM NaCl, 1 mM EDTA, 1.25% CHAPS, 1 mM Na3OV4, 2 mM NaF, 10 mM sodium pyrophosphate and complete protease inhibitor cocktail [Roche Applied Science]) for 10 minutes. […]
To further investigate the specificity of this inhibitory effect, LNCaP cells were serum-starved overnight, treated with 0-100 μM NTG for 2 hours, and activated for 10 minutes with 10 nM insulin or IGF-I, after which insulin receptor (IR) β-subunit and IGF-I receptor (IGF-IR) β-subunit were immunoprecipitated (FIG. 5B). The precipitated complexes were analyzed by Western blotting for presence of PI3K p85α (85 kDa), IRβ (95 kDa), IGF-IRβ (95 kDa) and phospho-tyrosine and the expression of PI3K p85α, Akt and phospho-Akt(ser473) was probed from the lysates. […]

phospho-Akt(ser473) = test: Western blot of Akt / phospho-Akt(ser473)
Method: Whole cell lysates were prepared by lysing floating and attached cells in Laemmli sample buffer and boiling the samples for 10 minutes. Proteins were separated by SDS-PAGE and transferred on PVDF membrane (Millipore). Western blotting was performed using antibodies against Akt, phospho-Akt (Ser473), GSK-3β, phospho-GSK-3β (Ser9) and phospho-EGF receptor Tyr(1068) (Cell Signalling Technology), Actin (clone AC-40; Sigma-Aldrich), PI3K p85α (clone 4/PI3-Kinase; BD Pharmingen), EGF receptor, Insulin receptor β and IGF-I receptor β (Santa Cruz Biotechnology), and Phospho-tyrosine (clone 4G10; Millipore). HRP-conjugated secondary antibodies were from Southern Biotechnology Associates, Promega, and Amersham Biosciences. The results were visualized using the ECL method (Amersham Biosciences) on x-ray film. The presented Western blot results are representative of at least three independent experiments. Densitometric analysis of Western blots was done using scanned films with the MCID M5+ software. The values were normalized to the untreated control sample, which was given the value 1. The histograms in FIG. 4 present a relative decrease in ratio of phosphorylated vs. non-phosphorylated protein compared to control cells.
LNCaP cells (+/−1 nM androgen) were treated with 0-100 μM enterolactone (ENL), matairesinol (MAT) or NTG for 1 hour prior to preparation of total cell lysates (FIG. 4A). The relative decrease in pAkt/Akt ratio was quantified from western blot analysis with Akt (60 kDa) and phospho-Akt(ser473) (Mean±SEM; n=4; Student's t-test *p<0.05, **p<0.01). Alternatively, androgen-deprived LNCaP cells were incubated with 100 μM NTG for 2 hours, fixed and labeled with Akt antibody followed by Alexa 546-conjugated secondary antibody. The samples were viewed at LSM 510 confocal microscope (63× oil objective, 543 nm excitation) (FIG. 4B). To examine the time-dependence of the observed inhibitory effect, LNCaP cells (+/−1 nM androgen) were incubated with 100 μM NTG for 0-8 hours after which total cell lysates were prepared. The western blot analysis with Akt, phospho-Akt(ser473), GSK-3β and phospho-GSK-3β(ser9) was quantified. The histogram presents a relative decrease in pAkt/Akt ratio (FIG. 4C.) or pGSK-3β/GSK-3β ratio (FIG. 4D.) compared to control cells (Mean±SEM; n=3). […]
Importantly, substitution with methyl group at position 8 further increases activity of dibenzylbutyrolactone lignans in sensitization of LNCaP prostate cancer cells to TRAIL-mediated apoptosis (FIG. 8). […] The samples were analyzed by flow cytometry and the fraction of sub-G0/G1 events (nuclear fragmentation) was detected as a measure of apoptotic cell death (mean±SEM; n=4). […]

[2] = LNCaP +/- androgen, 100 μM NTG 2 hours, then medium change

COc1cc(CC2COC(=O)C2(O)Cc2ccc(O)c(OC)c2)ccc1O (stereo not drawn) [NTG, Nortrachelogenin]
EGF-induced tyrosine phosphorylation of EGFR (EGF receptor (EGFR)): attenuated the EGF-induced tyrosine phosphorylation of EGFR
amount of receptor-associated PI3K p85 [1]: clearly reduced
receptor tyrosine phosphorylation of IR and IGF-IR [1]: decreased
Akt phosphorylation (pAkt/Akt ratio) (phospho-Akt(ser473); LNCaP +/- 1 nM androgen, 0-100 μM lignan, 1 hour (NTG also 100 μM, 0-8 hours)): downregulates Akt and GSK-3β phosphorylation; also recorded: inhibit Akt phosphorylation yet more efficiently than ENL or MAT
time after washout at which Akt activity starts returning (phospho-Akt(ser473); [2]): 10 min
time after washout to total recovery of Akt activity (phospho-Akt(ser473); [2]): ≤ 1 h
